Assay results: patent publication US8404696B2, “Quinazoline-2,4-dione derivative, and medical compositions for the prophylaxis and treatment of cranial nerve disease containing the same” (Shin Poong Pharmaceutical Co., Ltd., priority 2008, dated 2013)
Values after ≈ are worked out from the molar mass of the structure shown.

How the values were obtained:
[1] = tested on: superoxide dismutase (SOD); experiment: Increase of superoxide dismutase (SOD) activity in mouse brain cells; format: cell-based; settings: 100 μg/ml
Protocol: (§1) ROS inhibitory effect of compounds was represented to the dose suppressing 50% of production of reactive oxygen compared to control. […] The activity of superoxide dismutase (SOD) was measured by using a kit acquired in Sigma.

mouse brain cells = experiment: Inhibitory effect on ROS production in brain cells (DCF-DA, NMDA-induced); format: cell-based; settings: 24 h; dose suppressing 50% of production of reactive oxygen compared to control; mouse brain cells; read-out: ROS inhibitory effect ID50
Protocol: Oxidative stress was measured to test inhibitory effects on the production of reactive oxygen species (ROS) by using DCF-DA, which is a fluorescent probe. Brain cells were obtained from brain cortex of mouse to prepare cell solution with 2×10^6 cells/ml. Each brain cell was treated with 11 μM of DCF-DA followed by reaction in 37° C., 5% CO2 incubator for an hour. After washing twice, Compound 3 was treated with a concentration of 125 μg/ml and 250 μg/ml. At the same time, 300 μM of NMDA was treated and it was incubated in 37° C., 5% CO2 incubator for 24 hours.
as §1

[2] = tested on: pentylentetrazole (PTZ)-induced convulsion; experiment: Anti-convulsant effect, pentylentetrazole (PTZ) test; format: in vivo; settings: 10 mg/kg intraperitoneally, PTZ 80 mg/kg subcutaneously; for mortality rate / Induction percentage of convulsion: (animals/total); for mortality rate: negative control 70(17/23); for Induction percentage of convulsion: negative control 100(23/23); for Initiation time of convulsion: negative control 5.0 ± 0.7; for Duration of convulsion: negative control 46.7 ± 3.3
In short: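 Compound was given intraperitoneally at 10 mg/kg before PTZ challenge. The read-outs were time to convulsion onset, time until convulsions fully disappeared, and mortality.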

thoracic aorta of rats = experiment: Relaxing effect on thoracic aorta contracted by phenylephrine (organ bath); parameters: species or system rats of SD species; settings: Rattus norvegicus; 67 μg/mL; phenylephrine 0.5 μM; mean n = 3; read-out: Relaxation percentage
In short: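 Thoracic aortic rings (2 mm) from ether-anesthetized male SD rats (250-300 g) were mounted in Krebs buffer gassed with 95% O2/5% CO2 and equilibrated at 1.0 g basal tension for 90 min. After stable contraction with phenylephrine (0.5 μM), compounds were added and relaxation recorded.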

[3] = tested on: mixed culture of nerve cells-glial cells; experiment: Protecting effect on NMDA-induced nerve cell death (LDH release); format: cell-based, ICR mouse; settings: 100 μM NMDA, LDH release after 24 hours
In short: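 Embryonic day-14 ICR mouse cortical neurons seeded on cortical glia, Ara-C-treated, then exposed at day 12–15 for 20 min to 100 μM NMDA with compound at 1 or 2 μg/mL. LDH released 24 h later measured colorimetrically as a cell-death index.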

Row | SMILES | Increase of SOD activity, compared to control [1] | IC50 (mouse brain cells) | mortality rate [2] | Induction percentage of convulsion [2] | Initiation time of convulsion [2] | Duration of convulsion [2] | inhibition at 67 µg/mL (thoracic aorta of rats) | Inhibitory effect of cell death by NMDA-induced excitable neurotoxicity ([3]; 1 μg/ml compound) | Inhibitory effect of cell death by NMDA-induced excitable neurotoxicity ([3]; 2 μg/ml compound)
1 | NCCCNCCCCNCCCn1c(=O)[nH]c2ccccc2c1=O [Compound 1, 3-{3-[4-(3-aminopropylamino)butylamino]propyl}-1H-quinazoline-2,4-dione] | 0.7 ± 5.6 | 73 ± 14.1 µg/mL (≈ 210 µM) | 67(4/6) % | 83(5/6) % | 16.1 ± 9.0 min | 43.9 ± 9.0 min | 12.8% | 16.1% | 2.4%
2 | CCOC(=O)N(CCCCNCCCn1c(=O)[nH]c2ccccc2c1=O)CCCn1c(=O)[nH]c2ccccc2c1=O [Compound 5, [3-(2,4-dioxo-1,4-dihydro-2H-quinazolin-3-yl)propyl]-{4-[3-(2,4-dioxo-1,4-dihydro-2H-quinazolin-3-yl)propylamino]butyl}carbamic Acid ethyl ester] | 2.5 ± 2.8 | 24.4 ± 10.5 µg/mL (≈ 43.2 µM) | – | – | – | – | 19.2% | 11.4% | 39.4%
3 | CC(=O)N(CCCCN(CCCn1c(=O)[nH]c2ccccc2c1=O)Cc1ccccc1)CCCn1c(=O)[nH]c2ccccc2c1=O [Compound 13, N-(4-{benzyl-[3-(2,4-dioxo-1,4-dihydro-2H-quinazolin-3-yl)propyl]amino}butyl)-N-[3-(2,4-dioxo-1,4-dihydro-2H-quinazolin-3-yl)propyl]acetamide] | 7.6 ± 2.9 | 87.3 ± 10.9 µg/mL (≈ 140 µM) | – | – | – | – | 9.3% | 17.4% | 23.0%
4 | O=c1[nH]c2ccccc2c(=O)n1CCNCCCNCCn1c(=O)[nH]c2ccccc2c1=O [Compound 23, 3-(2-{3-[2-(2,4-dioxo-1,4-dihydro-2H-quinazolin-3-yl)ethylamino]propylamino}ethyl)-1H-quinazoline-2,4-dione] | 4.0 ± 10 | 55.5 ± 27.2 µg/mL (≈ 123 µM) | 33(2/6) % | 100(6/6) % | 9.3 ± 2.5 min | 28.7 ± 8.6 min | 20.4% | 36.0% | 32.2%
5 | O=c1[nH]c2ccccc2c(=O)n1CCCNCC=CCNCCCn1c(=O)[nH]c2ccccc2c1=O [Compound 25, 3-(3-{4-[3-(2,4-dioxo-1,4-dihydro-2H-quinazolin-3-yl)propylamino]-2-butenylamino}propyl)-1H-quinazoline-2,4-dione] | 1.6 ± 9.3 | 104 ± 32.5 µg/mL (≈ 212 µM) | 83(5/6) % | 100(6/6) % | 6.2 ± 1.5 min | 48.3 ± 5.9 min | 20% | 35.2% | 28.8%
6 | CCCCCCN(CCCCN(CCCn1c(=O)[nH]c2ccccc2c1=O)C(=O)OC(C)(C)C)CCCn1c(=O)[nH]c2ccccc2c1=O [Compound 30, [3-(2,4-dioxo-1,4-dihydro-2H-quinazolin-3-yl)propyl]-(4-{[3-(2,4-dioxo-1,4-dihydro-2H-quinazolin-3-yl)propyl]hexylamino}butyl)carbamic acid tert-butyl ester] | 6.2 ± 6.2 | 79.5 ± 15.7 µg/mL (≈ 117 µM) | 83(5/6) % | 83(5/6) % | 15.9 ± 9.0 min | 44.1 ± 9.0 min | 40.4% | 38.3% | 44.4%
7 | CCCCCCn1c(=O)n(CCCN(CCCCN(CCCn2c(=O)c3ccccc3n(CCCCCC)c2=O)C(=O)OC(C)(C)C)C(=O)OC(C)(C)C)c(=O)c2ccccc21 [Compound 32, (4-{tert-butoxycarbonyl-[3-(1-hexyl-2,4-dioxo-1,4-dihydro-2H-quinazolin-3-yl)propyl]amino}butyl)-[3-(1-hexyl-2,4-dioxo-1,4-dihydro-2H-quinazolin-3-yl)propyl]carbamic acid tert-butyl ester] | 0.3 ± 7.1 | 14.4 ± 7.6 µg/mL (≈ 16.7 µM) | 50(3/6) % | 100(5/6) % | 11.3 ± 4.5 min | 29.8 ± 12.0 min | – | 32.0% | 29.8%
8 | O=C(N(CCCCN(CCCn1c(=O)[nH]c2ccccc2c1=O)C(=O)C(F)(F)F)CCCn1c(=O)[nH]c2ccccc2c1=O)C(F)(F)F [Compound 37, N-[3-(2,4-dioxo-1,4-dihydro-2H-quinazolin-3-yl)propyl]-N-{4-[[3-(2,4-dioxo-1,4-dihydro-2H-quinazolin-3-yl)propyl]-(2,2,2-trifluoroacetyl)amino]butyl}-2,2,2-trifluoroacetamide] | 2.0 ± 5.8 | 22.9 ± 17.3 µg/mL (≈ 33.5 µM) | – | – | – | – | 7.9% | 27.3% | 25.0%
9 | COCC(=O)N(CCCCNCCCn1c(=O)[nH]c2ccccc2c1=O)CCCn1c(=O)[nH]c2ccccc2c1=O [Compound 38, N-[3-(2,4-dioxo-1,4-dihydro-2H-quinazolin-3-yl)propyl]-N-{4-[3-(2,4-dioxo-1,4-dihydro-2H-quinazolin-3-yl)propylamino]butyl}-2-methoxyacetamide] | 3.2 ± 4.9 | 136 ± 11 µg/mL (≈ 241 µM) | 17(1/6) % | 83(5/6) % | 16.0 ± 9.0 min | 11.2 ± 7.3 min | 88.2% | 33.5% | 13.5%
10 | O=C(OCc1ccccc1)N(CCCCNCCCn1c(=O)[nH]c2ccccc2c1=O)CCCn1c(=O)[nH]c2ccccc2c1=O [Compound 39, [3-(2,4-dioxo-1,4-dihydro-2H-quinazolin-3-yl)propyl]-{4-[3-(2,4-dioxo-1,4-dihydro-2H-quinazolin-3-yl)propylamino]butyl}carbamic acid benzyl ester] | 19.0 ± 6.3 | 32.3 ± 20 µg/mL (≈ 51.5 µM) | 0(0/6) % | 100(6/6) % | 9.5 ± 2.8 min | 19.8 ± 6.4 min | 54.8% | 30.8% | 17.1%
11 | Cc1ccc(S(=O)(=O)N(CCCCNCCCn2c(=O)[nH]c3ccccc3c2=O)CCCn2c(=O)[nH]c3ccccc3c2=O)cc1 [Compound 40, N-[3-(2,4-dioxo-1,4-dihydro-2H-quinazolin-3-yl)propyl]-N-{4-[3-(2,4-dioxo-1,4-dihydro-2H-quinazolin-3-yl)propylamino]butyl}-4-methylbenzenesulfonamide] | 8.3 ± 3.2 | 31 ± 8.1 µg/mL (≈ 47.9 µM) | 83(5/6) % | 100(6/6) % | 11.2 ± 2.4 min | 42.3 ± 8.5 min | – | – | 34.5%
12 | Cc1ccc(S(=O)(=O)N(CCCCN(CCCn2c(=O)[nH]c3ccccc3c2=O)S(=O)(=O)c2ccc(C)cc2)CCCn2c(=O)[nH]c3ccccc3c2=O)cc1 [Compound 41, N-[3-(2,4-dioxo-1,4-dihydro-2H-quinazolin-3-yl)propyl]-N-(4-{[3-(2,4-dioxo-1,4-dihydro-2H-quinazolin-3-yl)propyl]-4-methylbenzenesulfonylamino}butyl)-4-methylbenzenesulfonamide] | 2.0 ± 0.9 | 27.2 ± 18.6 µg/mL (≈ 34 µM) | – | – | – | – | 7.1% | – | 28.5%
